Source: patent publication US8778959B2, “AZA-bridged ring-fused indoles and indolines” (AbbVie Inc., priority 2009, dated 2014)

Test system: SK-N-SH human neuroblastoma cells
Experiment: Serum Deprivation/JC-1 Mitochondrial Membrane Potential (MMP) Assay
Format: cell-based
Settings: Homo sapiens, SK-N-SH, 18 h; for Emax: percent maximal intensity in JC-1 ratio normalized to peak value for 10 μM dimebolin, read-out: JC-1 max %; for EC50: serum deprivation ~18 hours, JC-1 ratio normalized to peak value for 10 μM dimebolin, single curve fit to mean of n=2-3
Description: SK-N-SH human neuroblastoma cells obtained from American Type Culture Collection (Rockville, Md.) were maintained in the log phase of growth in Minimal Essential Media (MEM), 10% heat inactivated fetal calf serum and 100 units/mL antibiotic-antimycotic (AA). Cells were cultured and maintained in a humidified incubator at 37° C. under 5% CO2 and 95% air. Cells were trypsinized (0.25%) and subcultured every 3 days and used from 15-18 passages. All cell culture supplies were obtained from Invitrogen (Carlsbad, Calif.).
SK-N-SH cells were plated 2-3 days in advance at a concentration of 50,000 cells/well onto collagen coated black-walled 96 well plates (Becton-Dickinson, Bedford, Mass.) in a total volume of 200 μL. On day of experimental treatment, the media containing serum was aspirated from each well and rinsed once with MEM/1% AA without serum. The cells then were incubated overnight in 100 μL of MEM/1% AA (no serum) with and without dimebolin or novel chemical entities overnight for ˜18 hours. The following day, JC-1 dye (5,5′,6,6′-tetrachloro-1,1′,3,3′-tetraethylbenzimidazolcarbocyanide) was diluted 1:10 into MEM media according to the JC-1 Mitochondrial Membrane Potential Assay Kit: (Cayman Chemical Company, Ann Arbor, Mich.) and then 10 μL of the JC-1 dye solution was added to each well. The plates were centrifuged for 5 minutes at 400×g at room temperature followed by 35 minute incubation at 37° C. The plates were washed twice with 200 μL of provided Assay Buffer followed an addition of 100 μL of Assay Buffer to each well. The plates were read with an excitation and emission of 560 nm and 595 nM for red fluorescence and with an excitation and emission of […] and 535 nM for green fluorescence to determine the final JC-1 value taking the red to green fluorescence ratio. This assay is based on change in mitochondrial membrane potential (MMP) using this lipophilic cationic dye, JC-1, by monitoring the changes in the ratio of red to green fluorescence as the MMP depolarizes. This change in MMP reflects the health of the cell with healthy, viable cells have a high JC-1 ratio and high MMP whereas apoptotic, unhealthy cells have a low JC-1 ratio or low MMP.
For the ability of compounds to reverse the stress due to serum deprivation and increase the JC-1 ratio, the percent maximal intensity in JC-1 ratio was normalized to that induced by the peak value for 10 μM dimebolin and plotted against the compound concentration to calculate EC50 values and to control for plate-to-plate variability. Concentration-response data were analyzed using GraphPad Prism (San Diego, Calif.); the EC50 values were derived from a single curve fit to the mean data of n=2-3, in duplicates.
All compounds were dissolved in dimethyl sulfoxide at 10 mM stock solutions and tested at a concentration that the dimethyl sulfoxide levels never exceeded 1%.

Structure (SMILES) | Emax [%] | EC50 [µM]
Cc1ccc(C#Cc2cccc3c4c([nH]c23)C[C@H]2CC[C@@H]4N2C)cn1 (stereo in doubt) [Example 17, (−)-(7R*,10S*)-11-methyl-4-[(6-methylpyridin-3-yl)ethynyl]-5,6,7,8,9,10-hexahydro-7,10-epiminocyclohepta[b]indole] | 182 | 3.87
CN1[C@H]2CCC[C@@H]1c1c([nH]c3c(OCc4ccccc4)cccc13)C2 (stereo in doubt) [Example 8, (+)-(7S*,11R*)-4-(benzyloxy)-12-methyl-6,7,8,9,10,11-hexahydro-5H-7,11-epiminocycloocta[b]indole] | 107 | 8.52
COC(=O)N1C2CCC1c1c([nH]c3c(-c4ccc5ccncc5c4)cccc13)C2 (stereo not shown) [Example 20, methyl 4-isoquinolin-7-yl-5,6,7,8,9,10-hexahydro-7,10-epiminocyclohepta[b]indole-11-carboxylate] | 292 | 9.94
Clc1ccc(-c2cccc3c4c([nH]c23)CC2CCC4N2)cn1 (stereo not shown) [Example 27, 4-(6-chloropyridin-3-yl)-5,6,7,8,9,10-hexahydro-7,10-epiminocyclohepta[b]indole] | 104 | 10.2
CN1C2CCC1c1c([nH]c3c(-c4cnc5ccccc5c4)cccc13)C2 (stereo not shown) [Example 34, 11-methyl-4-(quinolin-3-yl)-5,6,7,8,9,10-hexahydro-7,10-epiminocyclohept[b]indole] | 189 | 1.34
CC(=O)N1C2CCC1c1c([nH]c3c(/C=C/c4ccc(C)nc4)cccc13)C2 (stereo not shown) [Example 18, 11-acetyl-4-[(E)-2-(6-methylpyridin-3-yl)vinyl]-5,6,7,8,9,10-hexahydro-7,10-epiminocyclohepta[b]indole] | 146 | 10.6
Cc1ccc(/C=C/c2ccc3[nH]c4c(c3c2)C2CCC(C4)N2C)cn1 (stereo not shown) [Example 4, 11-methyl-2-[(E)-2-(6-methylpyridin-3-yl)vinyl]-5,6,7,8,9,10-hexahydro-7,10-epiminocyclohepta[b]indole] | 239 | 3.62
CN1[C@@H]2CCC[C@H]1c1c([nH]c3c(OCc4ccccc4)cccc13)C2 (stereo in doubt) [Example 7, (−)-(7R*,11S*)-4-(benzyloxy)-12-methyl-6,7,8,9,10,11-hexahydro-5H-7,11-epiminocycloocta[b]indole] | 120 | 5.41
